Results from patent publication US8173645B2 (Takeda San Diego, Inc., priority 2007, dated 2012).

Target: T1, glucokinase (GK), residues 12-465 of the human enzyme (Homo sapiens, UniProt P35557)
T1 construct: I.D. No. 1 corresponds to residues 12-465 of glucokinase; made in house; host or cells: E. coli DH10b-Tlr
T1 sequence (P35557 with tags, fused parts or gaps isoform P35557-2): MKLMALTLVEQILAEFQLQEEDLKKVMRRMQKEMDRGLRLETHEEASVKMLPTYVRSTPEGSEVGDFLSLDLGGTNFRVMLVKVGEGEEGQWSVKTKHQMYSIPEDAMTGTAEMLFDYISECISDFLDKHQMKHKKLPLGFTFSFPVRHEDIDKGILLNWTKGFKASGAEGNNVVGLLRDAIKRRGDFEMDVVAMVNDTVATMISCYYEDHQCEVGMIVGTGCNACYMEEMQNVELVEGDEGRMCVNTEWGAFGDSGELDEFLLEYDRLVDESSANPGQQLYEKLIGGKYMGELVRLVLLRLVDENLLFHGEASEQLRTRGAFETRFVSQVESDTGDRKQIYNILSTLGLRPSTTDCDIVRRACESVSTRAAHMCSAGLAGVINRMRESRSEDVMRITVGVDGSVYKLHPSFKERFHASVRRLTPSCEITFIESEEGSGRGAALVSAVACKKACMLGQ
Assay: Enzymatic glucokinase activity assay (KinaseGlo luminescence, ATP consumption)
Assay type: biochemical
Settings: 5 μM ATP, 5 mM Glucose; for EC50: GK activation, Kact = concentration giving 50% of the maximal increase in GK activity, read-out: pKact; for Emax: calculated maximal gain in GK enzyme activity at a saturating concentration of the compound, read-out: % ACTmax
From the text: The activity of compounds as glucokinase activators may be assayed in vitro, in vivo or in a cell line. Provided below is an enzymatic glucokinase activity assay.
Purified glucokinase may be obtained as follows. DNA encoding residues 12-465 of the full-length sequence of the human enzyme may be amplified by PCR and cloned into the HindIII and EcoRI sites of pFLAG-CTC (Sigma). SEQ. I.D. No. 1 corresponds to residues 12-465 of glucokinase.
The expression of recombinant glucokinase protein may be carried out by transformation and growth of DH10b-Tlr E. coli cells incorporating the (pFLAG-CTC) plasmid in LB media. Protein expression can be induced in this system by the addition of IPTG to the culture medium.
Recombinant protein may be isolated from cellular extracts by passage over Sepharose Q Fast Flow resin (Pharmacia). This partially purified GK extract may then be further purified by a second passage over Poros HQ 10 (Applied Biosystems). The purity of GK may be determined on denaturing SDS-PAGE gel. Purified GK may then be concentrated to a final concentration of 20.0 mg/ml. After flash freezing in liquid nitrogen, the proteins can be stored at −78° C. in a buffer containing 25 mM TRIS-HCl pH 7.6, 50 mM NaCl, and 0.5 mM TCEP.
The activation properties of compounds for GK may be determined using a black 384-well-plate format under the following reaction conditions: 25 mM Hepes pH 7.2, 25 mM NaCl, 10 mM MgCl2, 0.01% Brij35, 1 mM DTT, 5 μM ATP, 5 mM Glucose 2% DMSO. The amount of ATP consumed may be determined quantitatively by addition of equal volume of luciferase reagent (luciferase+beetle luciferin—KinaseGlo Luminescent Kinase Assay kit from Promega). The luminescence intensity may be measured by using the Analyst HT from LJL Biosystems.
The assay reaction may be initiated as follows: 4 μl of substrate mixture (12.5 μM ATP and 12.5 mM Glucose) was added to each well of the plate, followed by the addition of 2 μl of activator (2 fold serial dilutions for 11 data points for each activator) containing 10% DMSO. 4 μL of 1.25 nM GK solution may be added to initiate the reaction. The reaction mixture may then be incubated at room temperature for 60 min, and quenched and developed by addition of 10 μL of luciferase reagent. Luminescence intensities of the resulting reaction mixtures may be measured after a 10 min incubation at room temperature. The luminescence intensity may be measured by using the Analyst HT from LJL Biosystems.
pKact and % ACTmax values may be calculated by non-linear curve fitting of the compound concentrations and luminescence intensities to a standard inhibition/activation equation.

| SMILES | EC50 | Emax |
| --- | --- | --- |
| O=C(Nc1nccs1)[C@H](CC1CCCCC1)N1CCN(C(=S)Nc2cccc(C(F)(F)F)c2)CC1=O [Example 84, (S)-3-cyclohexyl-2-(2-oxo-4-(3-(trifluoromethyl)phenylcarbamothioyl)piperazin-1-yl)-N-(thiazol-2-yl)propanamide] | ≥ 3160 nM | 97.1 to 107% |
| NS(=O)(=O)c1ccc(NC(=S)N2CCN([C@@H](CC3CCCCC3)C(=O)Nc3nccs3)C(=O)C2)cc1 [Example 134, (S)-3-cyclohexyl-2-(2-oxo-4-(4-sulfamoylphenylcarbamothioyl)piperazin-1-yl)-N-(thiazol-2-yl)propanamide] | 1580 to 2510 nM | 108 to 119% |
| O=C(Nc1nccs1)[C@H](CC1CCCCC1)N1CCN(C(=O)Nc2ccc(C(F)(F)F)cc2)CC1=O [Example 142, (S)-4-(3-cyclohexyl-1-oxo-1-(thiazol-2-ylamino)propan-2-yl)-3-oxo-N-(4-(trifluoromethyl)phenyl)piperazine-1-carboxamide] | ≥ 3160 nM | ≤ 74% |
| O=C(Nc1nccs1)[C@H](CC1CCCCC1)N1CCN(C(=O)NCc2ccc(Cl)cc2)CC1=O [Example 138, (S)-N-(4-chlorobenzyl)-4-(3-cyclohexyl-1-oxo-1-(thiazol-2-ylamino)propan-2-yl)-3-oxopiperazine-1-carboxamide] | ≥ 3160 nM | ≤ 74% |
| COc1ccc(Oc2cccc(S(=O)(=O)N3CCN([C@@H](CC4CCCCC4)C(=O)Nc4nccs4)C(=O)C3)c2)cc1 [Example 228, (S)-3-cyclohexyl-2-(4-(3-(4-methoxyphenoxy)phenylsulfonyl)-2-oxopiperazin-1-yl)-N-(thiazol-2-yl)propanamide] | 794 to 1260 nM | ≤ 74% |
| COc1ccc(CNC(=S)N2CCN([C@@H](CC3CCCCC3)C(=O)Nc3nccs3)C(=O)C2)cc1 [Example 122, (S)-3-cyclohexyl-2-(4-(4-methoxybenzylcarbamothioyl)-2-oxopiperazin-1-yl)-N-(thiazol-2-yl)propanamide] | 1580 to 2510 nM | 74.1 to 97% |
| COc1ccc2nc(NC(=O)C(CC3CCOCC3)N3CCN(S(=O)(=O)C4CC4)CC3=O)sc2n1 (centres unmarked) [Example 26, 2-(4-(cyclopropylsulfonyl)-2-oxopiperazin-1-yl)-N-(5-methoxythiazolo[5,4-b]pyridin-2-yl)-3-(tetrahydro-2H-pyran-4-yl)propanamide] | ≥ 3160 nM | 74.1 to 97% |
| O=C(Nc1nccs1)[C@H](CC1CCCCC1)N1CCN(S(=O)(=O)c2ccc(-n3cccn3)cc2)CC1=O [Example 215, (S)-2-(4-(4-(1H-pyrazol-1-yl)phenylsulfonyl)-2-oxopiperazin-1-yl)-3-cyclohexyl-N-(thiazol-2-yl)propanamide] | 1580 to 2510 nM | 74.1 to 97% |
| O=C(Nc1nccs1)[C@H](CC1CCCCC1)N1CCN(C(=S)NCc2ccc(F)cc2)CC1=O [Example 120, (S)-3-cyclohexyl-2-(4-(4-fluorobenzylcarbamothioyl)-2-oxopiperazin-1-yl)-N-(thiazol-2-yl)propanamide] | 794 to 1260 nM | 108 to 119% |
| COc1cccc(C[C@@H](C(=O)Nc2nccs2)N2CCN(S(=O)(=O)C3CC3)CC2=O)c1 [Example 4, (S)-2-(4-(cyclopropylsulfonyl)-2-oxopiperazin-1-yl)-3-(3-methoxyphenyl)-N-(thiazol-2-yl)propanamide] | 1580 to 2510 nM | 74.1 to 97% |
| O=C(Nc1ncc(Cl)s1)C(CC1CCOCC1)N1CCN(S(=O)(=O)c2ccc(F)cc2)CC1=O (centres unmarked) [Example 33, N-(5-chlorothiazol-2-yl)-2-(4-(4-fluorophenylsulfonyl)-2-oxopiperazin-1-yl)-3-(tetrahydro-2H-pyran-4-yl)propanamide] | 794 to 1260 nM | ≥ 119% |
| O=C(Nc1nccs1)[C@H](CC1CCCCC1)N1CCN(C(=S)Nc2cccc(Cl)c2)CC1=O [Example 81, (S)-2-(4-(3-chlorophenylcarbamothioyl)-2-oxopiperazin-1-yl)-3-cyclohexyl-N-(thiazol-2-yl)propanamide] | 1580 to 2510 nM | 97.1 to 107% |

Further lines, results first:

| EC50 | Emax | SMILES |
| --- | --- | --- |
| 1580 to 2510 nM | 97.1 to 107% | CC(=O)c1cccc(S(=O)(=O)N2CCN([C@@H](CC3CCCCC3)C(=O)Nc3nccs3)C(=O)C2)c1 [Example 196, (S)-2-(4-(3-acetylphenylsulfonyl)-2-oxopiperazin-1-yl)-3-cyclohexyl-N-(thiazol-2-yl)propanamide] |
| ≥ 3160 nM | 97.1 to 107% | CC(=O)Nc1nc(C)c(S(=O)(=O)N2CCN([C@@H](CC3CCCCC3)C(=O)Nc3nccs3)C(=O)C2)s1 [Example 197, (S)-2-(4-(2-acetamido-4-methylthiazol-5-ylsulfonyl)-2-oxopiperazin-1-yl)-3-cyclohexyl-N-(thiazol-2-yl)propanamide] |
| 794 to 1260 nM | 97.1 to 107% | COc1ccc(S(=O)(=O)N2CCN([C@@H](CC3CCCCC3)C(=O)Nc3nccs3)C(=O)C2)cc1 [Example 46, (S)-3-cyclohexyl-2-(4-(4-methoxyphenylsulfonyl)-2-oxopiperazin-1-yl)-N-(thiazol-2-yl)propanamide] |
| ≤ 631 nM | 97.1 to 107% | O=C(Nc1nccs1)[C@H](CC1CCCCC1)N1CCN(S(=O)(=O)c2ccc(Cl)s2)CC1=O [Example 172, (S)-2-(4-(5-chlorothiophen-2-ylsulfonyl)-2-oxopiperazin-1-yl)-3-cyclohexyl-N-(thiazol-2-yl)propanamide] |
| ≤ 631 nM | ≤ 74% | Cn1nc(C(F)(F)F)cc1-c1ccc(S(=O)(=O)N2CCN([C@@H](CC3CCCCC3)C(=O)Nc3nccs3)C(=O)C2)s1 [Example 193, (S)-3-cyclohexyl-2-(4-(5-(1-methyl-3-(trifluoromethyl)-1H-pyrazol-5-yl)thiophen-2-ylsulfonyl)-2-oxopiperazin-1-yl)-N-(thiazol-2-yl)propanamide] |
| ≤ 631 nM | ≥ 119% | Cc1cccc(S(=O)(=O)N2CCN([C@@H](CC3CCCCC3)C(=O)Nc3nccs3)C(=O)C2)c1 [Example 192, (S)-3-cyclohexyl-2-(2-oxo-4-(m-tolylsulfonyl)piperazin-1-yl)-N-(thiazol-2-yl)propanamide] |
| 794 to 1260 nM | 108 to 119% | COc1ccc(OC)c(S(=O)(=O)N2CCN([C@@H](CC3CCCCC3)C(=O)Nc3nccs3)C(=O)C2)c1 [Example 194, (S)-3-cyclohexyl-2-(4-(2,5-dimethoxyphenylsulfonyl)-2-oxopiperazin-1-yl)N-(thiazol-2-yl)propanamide] |
| 1580 to 2510 nM | ≤ 74% | Cc1c(S(=O)(=O)N2CCN([C@@H](CC3CCCCC3)C(=O)Nc3nccs3)C(=O)C2)cnn1-c1ccccc1 [Example 163, (S)-3-cyclohexyl-2-(4-(5-methyl-1-phenyl-1H-pyrazol-4-ylsulfonyl)-2-oxopiperazin-1-yl)-N-(thiazol-2-yl)propanamide] |
| ≤ 631 nM | 74.1 to 97% | Cc1c(Cl)cc(F)cc1S(=O)(=O)N1CCN([C@@H](CC2CCCCC2)C(=O)Nc2nccs2)C(=O)C1 [Example 187, (S)-2-(4-(3-chloro-5-fluoro-2-methylphenylsulfonyl)-2-oxopiperazin-1-yl)-3-cyclohexyl-N-(thiazol-2-yl)propanamide] |
| 794 to 1260 nM | ≤ 74% | O=C(Nc1nccs1)[C@H](CC1CCCCC1)N1CCN(S(=O)(=O)c2ccc(Cl)c(Cl)c2)CC1=O [Example 90, (S)-3-cyclohexyl-2-(4-(3,4-dichlorophenylsulfonyl)-2-oxopiperazin-1-yl)-N-(thiazol-2-yl)propanamide] |
